# Reference: US10017556B2, “Insulin receptor partial agonists” (MERCK SHARP & DOHME CORP., priority 2014, dated 2018)
# System: lean C57BL/6NTac mice
# Assay: Intraperitoneal Insulin Tolerance Test (IP-ITT)
# Format: in vivo
# Details: intraperitoneal injection, two doses per compound (Table 16), blood glucose 30 to 360 min after dose
# Procedure: Groups of N=6-8 animals per group were randomized by weight (average about 30 grams). Two days prior to study, the mice were conditioned to dosing with an intraperitoneal injection of 0.9% Sodium Chloride solution at 5 ml/kg dosing volume. On the morning of the study, food was removed two or four hours prior to the study. Blood glucose concentrations were determined at T=0 min (baseline) using a Glucometer. […] Blood glucose levels were determined from tail bleeds taken between 30 to 360 minutes after dose.
substance,measurement,value
"B29,B29′-suberoyl-(insulin)2 [Compound B, reference compound]",glucose profile at low versus high dose in IP-ITT,increasing the dosage of compounds A and B caused an increased glucose lowering potency
